Laboratory results from patent US20250101034A1, “COMPOSITIONS USEFUL FOR MODULATING SPLICING” (SKYHAWK THERAPEUTICS, INC., priority 2021, published 2025).

What was measured:
[1] = test system: ATXN3 transcripts containing exon 4 (E4E5); test: ATXN3 quantitative splicing assay (qPCR, SK-N-MC cells); assay type: cell-based; conditions: Homo sapiens, 24 h treatment, qPCR E4E5 primers/probe, read-out: ATXN3 Potency - Splicing E4E5 IC50
Experimental: Human neuroblastoma SK-N-MC cells were plated in 384-well plates at 20,000 cells/well. Twenty-four hours after plating, cells were treated with compounds for 24 h at appropriate concentrations ranging from 30 μM to 0.6 nM (0.3% DMSO). Treated cells were lysed in 15 μL of lysis buffer, and cDNA was synthesized using the Fast Advanced Cells-to-Ct kit. Two μL of each cDNA was used in qPCR reactions to confirm the exon 4 skipped transcripts of ATXN3. A second set of primers/probe E4E5 was used to detect the transcripts containing exon 4. The third set of primers/probe E8E9 was used to detect total gene level of ATXN3. The qPCR reactions were prepared in 384-well plates in 10 μL volume, using TaqMan™ Fast Advanced Master Mix with primers and probes shown in the table below. Reactions were run in a Quant Studio 6 qPCR instrument with default settings.
The primers and probes are listed below in Table 4.

total ATXN3 protein = test: ATXN3 total protein assay (MSD, SK-N-MC cells); assay type: cell-based, Human; conditions: 48 hours incubation, read-out: ATXN3 Potency - Protein IC50
Experimental: Human neuroblastoma SK-N-MC cells were seeded at 10,000 cells/well in 384 well plates one day prior to compound treatment. The concentrations of compounds were tested at appropriate doses ranging from 30 μM to 0.6 nM. After incubation for 48 hours, the cells were lysed with 25 μL of lysis buffer containing protease inhibitors, and total ATXN3 protein levels were assessed by Mesoscale Discovery (MSD) assay developed with one pair of anti-ATXN3 antibodies. The capture and detect antibodies were raised in mouse and rabbit respectively. Anti-rabbit MSD-ST antibody was used for secondary antibody.
ATXN3 recombinant protein was used for standards. The readouts were captured with 35 μL of MSD read buffer and multi-array 384-well high binding plates.

SMILES	IC50 [1]	IC50 (total ATXN3 protein)
Cc1c(C[C@H](C)N)sc2c(NCc3nccs3)cnnc12 [Compound 6, 6-[(2S)-2-aminopropyl]-7-methyl-N-[(1,3-thiazol-2-yl)methyl]thieno[3,2-c]pyridazin-4-amine]	0.501 to 5 µM	0.501 to 5 µM
Cc1c(C[C@H](C)N)sc2c(Nc3cccs3)cnnc12 [Compound 82, 6-[(2S)-2-aminopropyl]-7-methyl-N-(thiophen-2-yl)thieno[3,2-c]pyridazin-4-amine]	10 to 40 µM	10 to 40 µM
Cc1c(C[C@@H](N)COC2CC2)sc2c(NCc3cccs3)cnnc12 [Compound 131, 6-[(2R)-2-amino-3-cyclopropoxypropyl]-7-methyl-N-[(thiophen-2-yl)methyl]thieno[3,2-c]pyridazin-4-amine]	0.501 to 5 µM	5 to 10 µM
Cc1ccsc1CNc1cnnc2c(C)c(C[C@H](C)N)sc12 [Compound 78, 6-[(2S)-2-aminopropyl]-7-methyl-N-[(3-methylthiophen-2-yl)methyl]thieno[3,2-c]pyridazin-4-amine]	–	10 to 40 µM
Cc1c(CC2(N)COC2)sc2c(NCc3cccs3)cnnc12 [Compound 92, 6-[(3-aminooxetan-3-yl)methyl]-7-methyl-N-[(thiophen-2-yl)methyl]thieno[3,2-c]pyridazin-4-amine]	10 to 40 µM	10 to 40 µM
Cc1c(C[C@@H](N)CO)sc2c(NCc3nccs3)cnnc12 [Compound 5, (2R)-2-amino-3-(7-methyl-4-{[(1,3-thiazol-2-yl)methyl]amino}thieno[3,2-c]pyridazin-6-yl)propan-1-ol]	10 to 40 µM	10 to 40 µM
Cc1c(C[C@H](C)N)sc2c(NCn3cccc3)cnnc12 [Compound 43, 6-[(2S)-2-aminopropyl]-7-methyl-N-[(1H-pyrrol-1-yl)methyl]thieno[3,2-c]pyridazin-4-amine]	5 to 10 µM	5 to 10 µM
Cc1c(C[C@H]2CCCN2)sc2c(NCc3cccs3)cnnc12 [Compound 69, 7-methyl-6-[(2R)-pyrrolidin-2-ylmethyl]-N-(thiophen-2-ylmethyl)thieno[3,2-c]pyridazin-4-amine]	10 to 40 µM	10 to 40 µM
Cc1c(C[C@H](C)N)sc2c(NCc3cccs3)cnnc12 [Compound 4, 6-[(2S)-2-aminopropyl]-7-methyl-N-(thiophen-2-ylmethyl)thieno[3,2-c]pyridazin-4-amine]	0.501 to 5 µM	0.101 to 0.5 µM
COc1nnc2c(C)c(C[C@H](C)N)sc2c1NCc1cccs1 [Compound 86, 6-[(2S)-2-aminopropyl]-3-methoxy-7-methyl-N-[(thiophen-2-yl)methyl]thieno[3,2-c]pyridazin-4-amine]	10 to 40 µM	10 to 40 µM
Cc1c(C[C@@H](N)CC#N)sc2c(NCc3cccs3)cnnc12 [Compound 27, (3S)-3-amino-4-(7-methyl-4-{[(thiophen-2-yl)methyl]amino}thieno[3,2-c]pyridazin-6-yl)butanenitrile]	0.501 to 5 µM	5 to 10 µM
Cc1csc2c(NCc3ccco3)cnnc12 [Compound 11, N-[(furan-2-yl)methyl]-7-methylthieno[3,2-c]pyridazin-4-amine]	10 to 40 µM	10 to 40 µM
Cc1c(C[C@H](C)N)sc2c(NCc3cnco3)cnnc12 [Compound 46, 6-[(2S)-2-aminopropyl]-7-methyl-N-[(1,3-oxazol-5-yl)methyl]thieno[3,2-c]pyridazin-4-amine]	10 to 40 µM	10 to 40 µM
Cc1c(C[C@@H](N)C[S+](C)[O-])sc2c(NCc3cccs3)cnnc12 (stereo partly drawn) [Compound 59, 6-[(2R)-2-amino-3-methanesulfinylpropyl]-7-methyl-N-[(thiophen-2-yl)methyl]thieno[3,2-c]pyridazin-4-amine]	5 to 10 µM	10 to 40 µM
Brc1csc2c(NCc3cccs3)cnnc12 [Compound 63, 7-bromo-N-(thiophen-2-ylmethyl)thieno[3,2-c]pyridazin-4-amine]	10 to 40 µM	10 to 40 µM
Cc1c(C[C@@H](N)CCO)sc2c(NCc3cccs3)cnnc12 [Compound 61, (3S)-3-amino-4-(7-methyl-4-{[(thiophen-2-yl)methyl]amino}thieno[3,2-c]pyridazin-6-yl)butan-1-ol]	0.501 to 5 µM	0.501 to 5 µM
Cc1c(C(F)(F)[C@H](C)N)sc2c(NCc3cccs3)cnnc12 [Compound 125, 6-[(2S)-2-amino-1,1-difluoropropyl]-7-methyl-N-(thiophen-2-ylmethyl)thieno[3,2-c]pyridazin-4-amine]	0.501 to 5 µM	0.501 to 5 µM

SMILES	IC50 [1]	IC50 (total ATXN3 protein)
Cc1c([C@@H](C)[C@@H](C)N)sc2c(NCc3cccs3)cnnc12 [Compound 102, 6-[(2S,3R)-3-aminobutan-2-yl]-7-methyl-N-[(thiophen-2-yl)methyl]thieno[3,2-c]pyridazin-4-amine]	10 to 40 µM	10 to 40 µM
Cc1c(C[C@@H](N)[C@H](C)F)sc2c(NCc3cccs3)cnnc12 [Compound 110, 6-[(2R,3S)-2-amino-3-fluorobutyl]-7-methyl-N-[(thiophen-2-yl)methyl]thieno[3,2-c]pyridazin-4-amine]	0.101 to 0.5 µM	0.101 to 0.5 µM
Cc1c(C[C@H](C)N)sc2c(NCc3ccns3)cnnc12 [Compound 18, 6-[(2S)-2-aminopropyl]-7-methyl-N-[(1,2-thiazol-5-yl)methyl]thieno[3,2-c]pyridazin-4-amine]	10 to 40 µM	10 to 40 µM
Cc1c(C[C@@H](N)CC(C)C)sc2c(NCc3ccco3)cnnc12 [Compound 20, 6-[(2S)-2-amino-4-methylpentyl]-N-[(furan-2-y1)methyl]-7-methylthieno[3,2-c]pyridazin-4-amine]	5 to 10 µM	5 to 10 µM
Cc1csc2c(NC(=O)c3cccs3)cnnc12 [Compound 89, N-{7-methylthieno[3,2-c]pyridazin-4-yl}thiophene-2-carboxamide]	10 to 40 µM	10 to 40 µM
Cc1c(C(F)[C@H](C)N)sc2c(NCc3cccs3)cnnc12 (stereo partly drawn) [Compound 55, 6-[(2S)-2-amino-1-fluoropropyl]-7-methyl-N-[(thiophen-2-yl)methyl]thieno[3,2-c]pyridazin-4-amine]	0.501 to 5 µM	0.501 to 5 µM
C[C@H](N)Cc1sc2c(NCc3cccs3)cnnc2c1Br [Compound 35, 6-[(2S)-2-aminopropyl]-7-bromo-N-[(thiophen-2-yl)methyl]thieno[3,2-c]pyridazin-4-amine]	0.101 to 0.5 µM	0.101 to 0.5 µM
N[C@@H](CO)Cc1sc2c(NCc3cccs3)cnnc2c1Cl [Compound 91, (2R)-2-amino-3-(7-chloro-4-{[(thiophen-2-yl)methyl]amino}thieno[3,2-c]pyridazin-6-yl)propan-1-ol]	0.101 to 0.5 µM	0.101 to 0.5 µM
COc1c(C[C@H](C)N)sc2c(NCc3cccs3)cnnc12 [Compound 22, (S)-6-(2-aminopropyl)-7-methoxy-N-(thiophen-2-ylmethyl)thieno[3,2-c]pyridazin-4-amine]	0.501 to 5 µM	0.501 to 5 µM
Cc1c(C[C@H](N)C[C@H]2CC2(F)F)sc2c(NCc3cccs3)cnnc12 [Compound 129, 6-[(2R)-2-amino-3-[(1S)-2,2-difluorocyclopropyl]propyl]-7-methyl-N-(thiophen-2-ylmethyl)thieno[3,2-c]pyridazin-4-amine]	5 to 10 µM	0.501 to 5 µM
Cc1ccc(CNc2cnnc3c(C)c(C[C@H](C)N)sc23)s1 [Compound 77, 6-[(2S)-2-aminopropyl]-7-methyl-N-[(5-methylthiophen-2-yl)methyl]thieno[3,2-c]pyridazin-4-amine]	–	10 to 40 µM
Cc1csc2c(NCc3cccs3)c(Br)nnc12 [Compound 87, 3-bromo-7-methyl-N-[(thiophen-2-yl)methyl]thieno[3,2-c]pyridazin-4-amine]	10 to 40 µM	10 to 40 µM
Cc1c(CC(N)C2COC2)sc2c(NCc3cccs3)cnnc12 (stereo not drawn) [Compound 93, 6-[2-amino-2-(oxetan-3-yl)ethyl]-7-methyl-N-[(thiophen-2-yl)methyl]thieno[3,2-c]pyridazin-4-amine]	5 to 10 µM	0.501 to 5 µM
Cc1c(CO)sc2c(NCc3cccs3)cnnc12 [Compound 114, (7-methyl-4-{[(thiophen-2-yl)methyl]amino}thieno[3,2-c]pyridazin-6-yl)methanol]	10 to 40 µM	10 to 40 µM
Cc1c(C[C@@H]2CCCN2)sc2c(NCc3cccs3)cnnc12 [Compound 70, 7-methyl-6-{[(2S)-pyrrolidin-2-yl]methyl}-N-[(thiophen-2-yl)methyl]thieno[3,2-c]pyridazin-4-amine]	–	10 to 40 µM
Cc1csc(CNc2cnnc3c(C)c(C[C@H](C)N)sc23)c1 [Compound 79, 6-[(2S)-2-aminopropyl]-7-methyl-N-[(4-methylthiophen-2-yl)methyl]thieno[3,2-c]pyridazin-4-amine]	–	10 to 40 µM
CC(=O)CCc1sc2c(NCc3cccs3)cnnc2c1C [Compound 88, 4-{7-methyl-4-[(thiophen-2-ylmethyl)amino]thieno[3,2-c]pyridazin-6-yl}butan-2-one]	–	10 to 40 µM
